Assay results published in ChEMBL document CHEMBL5634101, “Discovery of NLRP3 inhibitors using machine learning: Identification of a hit compound to treat NLRP3 activation-driven diseases” (Eur J Med Chem, 2023).
Active and inactive are the calls of the source. The rule behind the calls is not given here.

Tests used:
L02 = test: Cytotoxicity against human L02 cells assessed as reduction in cell viability upto 50 uM incubated for 24 hrs by CCK8 assay; type: toxicity, cell-based; conditions: l02, 24 h
[1] = biological target: NACHT, LRR and PYD domains-containing protein 3 (Mus musculus) (UniProt Q8R4B8); test: (§1) Inhibition of NLRP3 inflammasome activation in LPS/Nigericin induced C57 mouse BMDM cells assessed as reduction in intracellular NLRP3 expression in cell supernatant at 2.5 to 10 uM preincubated with LPS for 3 hrs followed by compound addition for 30 mins prior to nigericin addition and measured after 30 mins by Western blot analysis; type: cell-based; conditions: dose 2.5-10 µM, time 1.0 hrs
[2] = biological target: NACHT, LRR and PYD domains-containing protein 3 (Mus musculus) (UniProt Q8R4B8); test: Inhibition of NLRP3 inflammasome activation in C57 mouse BMDM cells assessed as reduction in caspase-1 activation at 5 uM preincubated with LPS for 3 hrs followed by compound addition for 30 mins prior to nigericin addition and measured after 30 mins by Western blot analysis; type: cell-based; conditions: time 1.0 hrs
[3] = biological target: NLR family CARD domain-containing protein 4 (Mus musculus) (UniProt Q3UP24); test: Inhibition of NLRC4 inflammasome activation in C57 mouse BMDM cells assessed as reduction in caspase-1 maturation at 5 uM preincubated with LPS for 3 hrs followed by Salmonella typhimurium stimulation for 2 hrs by Western blot analysis; type: cell-based
Mus musculus = test: Anti-inflammatory activity in LPS-induced C57 sepsis mouse model assessed as reduction in serum IL-1beta level at 10 to 30 mg/kg, ip preadministered with compound for 30 mins followed by LPS stimulation and measured after 6 hrs by ELISA; type: functional, organism-based; conditions: dose 10-30 mg/kg, time 6.5 hrs
[4] = Stability in human liver microsomes assessed as half-life at 1.5 uM measured upto 45 mins in presence of NADPH by LC-MS/MS analysis; type: ADME, Microsome
[5] = biological target: T1, NACHT, LRR and PYD domains-containing protein 3 (Homo sapiens, UniProt Q96P20); test: Inhibition of NLRP3 inflammasome activation in […]-differentiated human THP-1 cells assessed as effect on ROS production at 10 uM preincubated with LPS for 3 hrs followed by compound addition for 30 mins prior to nigericin addition and measured after 30 mins by MitoSOX dye/Hoechst 33342 staining based confocal microscopic analysis; type: cell-based; conditions: time 1.0 hrs
[6] = biological target: NACHT, LRR and PYD domains-containing protein 3 (Mus musculus) (UniProt Q8R4B8); test: as §1, with “active caspase-1” for “intracellular NLRP3 expression”; type: cell-based; conditions: dose 2.5-10 µM, time 1.0 hrs
[7] = biological target: NACHT, LRR and PYD domains-containing protein 3 (Mus musculus) (UniProt Q8R4B8); test: Inhibition of NLRP3 inflammasome assembly in C57 mouse BMDM cells assessed as reduction in ASC monomer at 2.5 to 10 uM preincubated with LPS for 3 hrs followed by compound addition for 30 mins prior to nigericin addition and measured after 30 mins by blotting analysis; type: cell-based; conditions: dose 2.5-10 µM, time 1.0 hrs
[8] = biological target: NACHT, LRR and PYD domains-containing protein 3 (Mus musculus) (UniProt Q8R4B8); test: as §1, with “pro-caspase-1(p45)” for “intracellular NLRP3”; type: cell-based; conditions: dose 2.5-10 µM, time 1.0 hrs
[9] = biological target: NACHT, LRR and PYD domains-containing protein 3 (Mus musculus) (UniProt Q8R4B8); test: Inhibition of NLRP3 inflammasome activation in LPS/Nigericin induced C57 mouse BMDM cells assessed as reduction in […] preincubated with LPS for 3 hrs followed by compound addition for 30 mins prior to nigericin addition and measured after 30 mins by PI/Hoechst 33342 staining based analysis; type: cell-based; conditions: time 1.0 hrs
[10] = biological target: T1, NACHT, LRR and PYD domains-containing protein 3; test: Inhibition of NLRP3 inflammasome activation in PMA-differentiated human THP-1 cells assessed as reduction in IL-1beta secretion pre-stimulated with PMA for 24 hrs followed by compound addition and measured after 30 mins by ELISA; type: cell-based
BMDM = test: Effect on TNF-alpha secretion in LPS/Nigericin induced C57 mouse BMDM cells at 1.25 to 10 uM preincubated with LPS for 3 hrs followed by compound addition for 30 mins prior to nigericin addition and measured after 30 mins by ELISA; type: functional, cell-based; conditions: dose 1.25-10 µM, time 1.0 hrs
THP-1 = test: Cytotoxicity against PMA-differentiated human THP-1 cells assessed as reduction in cell viability upto 50 uM incubated for 24 hrs by CCK8 assay; type: toxicity, cell-based; conditions: thp-1, 24 h
[11] = biological target: NACHT, LRR and PYD domains-containing protein 3 (Mus musculus) (UniProt Q8R4B8); test: Inhibition of NLRP3 inflammasome activation in C57 mouse BMDM cells assessed as reduction in caspase-1 maturation at 5 uM preincubated with LPS for 3 hrs followed by compound addition for 30 mins prior to ATP addition and measured after 30 mins by Western blot analysis; type: cell-based; conditions: time 1.0 hrs
[12] = biological target: NACHT, LRR and PYD domains-containing protein 3 (Mus musculus) (UniProt Q8R4B8); test: as §1, with “IL-1beta maturation” for “intracellular NLRP3 expression”; type: cell-based; conditions: dose 2.5-10 µM, time 1.0 hrs
[13] = biological target: NLR family CARD domain-containing protein 4 (Mus musculus) (UniProt Q3UP24); test: Inhibition of NLRC4 inflammasome activation in C57 mouse BMDM cells assessed as reduction in IL-1beta secretion at 5 uM preincubated with LPS for 3 hrs followed by Salmonella typhimurium stimulation for 2 hrs by Western blot analysis; type: cell-based
[14] = biological target: NACHT, LRR and PYD domains-containing protein 3 (Mus musculus) (UniProt Q8R4B8); test: Binding affinity to NLRP3 in mouse J774.A1 cells assessed as reduction in NLRP3 degradation incubated for 1 hrs at 48 to 81 degreeC by CETSA based Western blot analysis; type: cell-based
[15] = biological target: NACHT, LRR and PYD domains-containing protein 3 (Mus musculus) (UniProt Q8R4B8); test: Inhibition of NLRP3 inflammasome assembly in C57 mouse BMDM cells assessed as effect on ASC binding at 2.5 to 10 uM preincubated with LPS for 3 hrs followed by compound addition for 30 mins prior to nigericin addition and measured after 30 mins by immunoprecipitation; type: cell-based; conditions: dose 2.5-10 µM, time 1.0 hrs
[16] = biological target: NACHT, LRR and PYD domains-containing protein 3 (Mus musculus) (UniProt Q8R4B8); test: as §1, with “NEK7” for “intracellular NLRP3”; type: cell-based; conditions: dose 2.5-10 µM, time 1.0 hrs
[17] = biological target: T2, Interferon-inducible protein AIM2 (Mus musculus) (UniProt Q91VJ1); test: Inhibition of AIM2 inflammasome activation in C57 mouse BMDM cells assessed as reduction in IL-1beta secretion at 5 uM preincubated with LPS for 3 hrs followed by poly(dA:dT) stimulation for 4 hrs by Western blot analysis; type: cell-based
T2 sequence (whole entry): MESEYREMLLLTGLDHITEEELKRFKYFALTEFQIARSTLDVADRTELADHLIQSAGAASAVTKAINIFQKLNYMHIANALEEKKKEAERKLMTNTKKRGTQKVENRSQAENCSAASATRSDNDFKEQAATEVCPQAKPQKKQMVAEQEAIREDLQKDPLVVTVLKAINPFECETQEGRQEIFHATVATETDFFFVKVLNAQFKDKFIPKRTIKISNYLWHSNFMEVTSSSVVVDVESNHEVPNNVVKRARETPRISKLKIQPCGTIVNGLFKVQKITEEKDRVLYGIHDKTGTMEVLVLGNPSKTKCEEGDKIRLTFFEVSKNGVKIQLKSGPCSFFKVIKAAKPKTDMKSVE

NACHT, LRR and PYD domains-containing protein 3 (Mus musculus), sequence (Q8R4B8 whole entry, the tested form may be a part): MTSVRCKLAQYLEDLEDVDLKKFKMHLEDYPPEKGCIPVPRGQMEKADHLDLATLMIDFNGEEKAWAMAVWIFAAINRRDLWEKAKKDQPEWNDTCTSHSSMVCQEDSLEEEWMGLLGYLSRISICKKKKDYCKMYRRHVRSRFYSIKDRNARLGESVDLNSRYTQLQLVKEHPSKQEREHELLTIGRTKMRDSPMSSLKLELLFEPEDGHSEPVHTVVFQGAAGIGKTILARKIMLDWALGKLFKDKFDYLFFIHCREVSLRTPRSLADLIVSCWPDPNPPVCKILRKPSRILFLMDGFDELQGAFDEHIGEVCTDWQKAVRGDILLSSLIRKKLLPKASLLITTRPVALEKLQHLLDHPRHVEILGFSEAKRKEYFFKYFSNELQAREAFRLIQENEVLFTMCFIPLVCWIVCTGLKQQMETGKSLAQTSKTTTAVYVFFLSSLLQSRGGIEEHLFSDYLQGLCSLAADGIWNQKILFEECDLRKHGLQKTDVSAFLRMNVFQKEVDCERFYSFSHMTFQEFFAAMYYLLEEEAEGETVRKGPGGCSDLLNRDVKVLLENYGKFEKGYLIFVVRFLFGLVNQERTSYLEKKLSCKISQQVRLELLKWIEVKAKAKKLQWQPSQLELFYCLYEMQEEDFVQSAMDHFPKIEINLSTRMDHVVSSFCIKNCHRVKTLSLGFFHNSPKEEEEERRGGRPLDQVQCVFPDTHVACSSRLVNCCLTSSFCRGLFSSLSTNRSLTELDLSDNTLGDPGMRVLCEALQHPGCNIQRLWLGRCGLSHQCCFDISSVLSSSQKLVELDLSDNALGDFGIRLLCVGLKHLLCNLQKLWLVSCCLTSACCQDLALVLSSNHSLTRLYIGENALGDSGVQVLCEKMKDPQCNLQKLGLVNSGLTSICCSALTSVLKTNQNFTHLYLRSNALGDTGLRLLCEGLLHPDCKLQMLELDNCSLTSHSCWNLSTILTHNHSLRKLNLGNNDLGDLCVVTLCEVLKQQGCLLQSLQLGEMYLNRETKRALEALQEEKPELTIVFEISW
T1 sequence (Q96P20 whole entry, the tested form may be a part): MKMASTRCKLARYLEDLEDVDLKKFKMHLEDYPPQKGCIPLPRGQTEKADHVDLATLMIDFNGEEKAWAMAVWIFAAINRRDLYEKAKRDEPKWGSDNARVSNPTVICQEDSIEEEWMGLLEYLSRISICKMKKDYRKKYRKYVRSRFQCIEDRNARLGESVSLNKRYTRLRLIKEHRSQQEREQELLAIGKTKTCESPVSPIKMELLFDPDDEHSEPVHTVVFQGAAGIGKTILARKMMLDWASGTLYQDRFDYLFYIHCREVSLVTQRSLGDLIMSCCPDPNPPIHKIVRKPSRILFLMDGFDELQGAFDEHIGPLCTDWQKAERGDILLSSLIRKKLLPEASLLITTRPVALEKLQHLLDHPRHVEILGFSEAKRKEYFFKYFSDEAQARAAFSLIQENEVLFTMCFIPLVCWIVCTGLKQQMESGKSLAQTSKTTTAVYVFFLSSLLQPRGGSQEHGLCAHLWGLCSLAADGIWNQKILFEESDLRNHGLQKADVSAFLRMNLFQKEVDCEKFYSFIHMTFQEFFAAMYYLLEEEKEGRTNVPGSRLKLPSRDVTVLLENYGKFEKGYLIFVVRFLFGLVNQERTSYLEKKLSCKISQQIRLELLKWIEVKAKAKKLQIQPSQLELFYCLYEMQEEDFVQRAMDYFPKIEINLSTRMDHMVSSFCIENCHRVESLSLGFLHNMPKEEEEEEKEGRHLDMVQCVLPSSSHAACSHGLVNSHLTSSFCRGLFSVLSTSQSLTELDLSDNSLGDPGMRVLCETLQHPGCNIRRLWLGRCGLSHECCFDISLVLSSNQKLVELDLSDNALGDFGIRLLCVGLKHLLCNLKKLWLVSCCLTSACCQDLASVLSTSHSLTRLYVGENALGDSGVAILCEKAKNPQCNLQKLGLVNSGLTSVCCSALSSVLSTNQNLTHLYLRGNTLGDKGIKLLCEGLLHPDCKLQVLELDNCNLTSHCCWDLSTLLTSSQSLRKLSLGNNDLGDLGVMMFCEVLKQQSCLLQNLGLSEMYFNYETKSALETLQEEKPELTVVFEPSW
NLR family CARD domain-containing protein 4 (Mus musculus), sequence (Q3UP24 whole entry, the tested form may be a part): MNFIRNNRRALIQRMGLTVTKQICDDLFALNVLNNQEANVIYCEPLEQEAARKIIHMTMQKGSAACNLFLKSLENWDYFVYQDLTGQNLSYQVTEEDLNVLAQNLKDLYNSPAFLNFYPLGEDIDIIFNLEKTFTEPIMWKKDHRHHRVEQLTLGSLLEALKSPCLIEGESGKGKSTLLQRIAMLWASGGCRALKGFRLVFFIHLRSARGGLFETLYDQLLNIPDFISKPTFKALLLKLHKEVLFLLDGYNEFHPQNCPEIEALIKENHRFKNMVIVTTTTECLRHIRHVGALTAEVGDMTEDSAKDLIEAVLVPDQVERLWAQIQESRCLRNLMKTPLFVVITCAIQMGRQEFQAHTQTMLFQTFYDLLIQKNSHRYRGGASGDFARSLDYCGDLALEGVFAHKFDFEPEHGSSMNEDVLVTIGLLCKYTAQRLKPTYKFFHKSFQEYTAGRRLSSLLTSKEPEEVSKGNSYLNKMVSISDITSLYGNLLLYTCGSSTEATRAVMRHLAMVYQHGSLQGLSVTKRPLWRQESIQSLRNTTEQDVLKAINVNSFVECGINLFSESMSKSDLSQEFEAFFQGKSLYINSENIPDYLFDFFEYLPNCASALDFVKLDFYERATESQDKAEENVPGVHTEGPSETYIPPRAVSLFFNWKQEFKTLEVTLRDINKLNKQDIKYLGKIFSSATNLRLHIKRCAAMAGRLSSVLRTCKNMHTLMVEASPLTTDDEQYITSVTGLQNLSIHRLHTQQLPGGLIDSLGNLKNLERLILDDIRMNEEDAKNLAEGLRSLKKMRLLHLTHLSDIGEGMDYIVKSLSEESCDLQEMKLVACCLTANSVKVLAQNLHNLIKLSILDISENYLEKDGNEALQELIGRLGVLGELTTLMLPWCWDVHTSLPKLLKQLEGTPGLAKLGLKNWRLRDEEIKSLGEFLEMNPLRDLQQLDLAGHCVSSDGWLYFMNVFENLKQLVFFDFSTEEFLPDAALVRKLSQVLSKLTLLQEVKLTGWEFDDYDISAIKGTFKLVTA

In the case of `COc1ccc(N2C(=O)/C(=C\c3ccccc3C(F)(F)F)SC2=S)cc1`, the Activity (L02) is reported as “Non-Toxic”, the inhibition [1] is reported as “inactive” and the inhibition [2] is reported as “Active”. The inhibition [3] was “inactive”, the Activity (Mus musculus) was “Active” and the half-life at 1.5 µM [4] was 2.07 h. For the same molecule, the inhibition [5] was “inactive”, the inhibition [6] was “Active” and the inhibition [7] was “Active”. For the same molecule, the inhibition [8] was “inactive”, the inhibition [9] was “Active” and the IC50 [10] was 2300 nM. For the same molecule, the Activity (BMDM) was “inactive”, the Activity (THP-1) was “Non-Toxic” and the inhibition [11] was “Active”. The inhibition [12] was “Active”, the inhibition [13] was “inactive” and the Activity [14] was “Active”. The inhibition [15] was “Active”, the inhibition [16] was “inactive” and the inhibition [17] was “inactive”.
